Laboratory results reported in ChEMBL document CHEMBL1130920, “The structure-activity relationships of a series of suicide inhibitors of phospholipase A2” (Bioorg Med Chem Lett, 1998).

Experiment: Compound was tested for the inhibitory activity against cobra venom PLA2 (Naja naja atra) by using the Dole assay

Row | Structure (SMILES) | Activity (nM min-1 mg-1)
1 | [O-][S+](c1ccc(O)cc1)C(F)(F)F (centres undefined) | 2
2 | O=[N+]([O-])c1ccc(O)cc1 | 2.5
3 | O=S(=O)(c1ccc(O)cc1)C(F)(F)F | 11.9
4 | CS(=O)(=O)c1ccc(O)cc1 | 11.1
